Experiments:
breast cancer cells [1] = assay: Caspase 3/7 assay; assay type: cell-based, human; details: 50 μM, within 72 hrs
Description: Cells were cultured in 96-well plates (30,000 cells/well). After compound 1 treatment for 24-72 hrs, cellular apoptosis was analyzed using the Caspase-Glo 3/7 Assay kit (Promega) according to the manufacturer's instructions.

breast cancer cells [2] = assay: Cell cycle analysis by flow cytometry; assay type: cell-based, human; details: 50 μM
Description: Cells (1×10^6 cells/ml) were starved in serum-free medium for 24 hrs, and released in 10% serum-medium with or without compound 1 (50 μM) for 16-24 hrs for cell cycle transition. Cells were then fixed in 70% ethanol at 4° C. for 1 hr, resuspended in 1 ml PBS containing 20 μg/ml propidium iodide, 20 μg/ml RNase A, incubated for 30 min at room temperature, and analyzed with a Becton Dickinson LSR-II at the Flow Cytometry Core Laboratory at the University of Maryland. Ten thousand events per sampl were collected and analyzed using the Cell-Quest (BD Biosciences).

MCF7-tet-off cells = assay: 96 Well BME Cell Invasion Assay; assay type: cell-based, human; details: MCF7-tet-off (+Doxy) and (-Doxy), 50 μM, 24 hrs
Description: MCF7-tet-off cells were grown in the media with (+Doxy) or without doxycycline (−Dox) for 72 hours. Cells were then treated with compound 1 (50 μM) for 24 hrs, and trypsinized and suspended in serum-free media. Cells were re-plated in the top chamber precoated with 0.1× BME (Cultrex), and growth medium supplemented with 10% FBS was used as a chemoattractant in the bottom chamber. compound 1 was added to both chambers and incubated for 16 hrs. Cellular invasion was analyzed according to the 96 Well BME Cell Invasion Assay protocol (Cultrex).

RUNX2 responsive genes = assay: Q-RT-PCR of RUNX2 responsive genes; assay type: cell-based, human; details: 50 μM
Description: Total RNA was extracted using TRIzol (Life Technologies). One […] of total RNA was reverse transcribed with oligo-(dT) primer using the SuperScript first-strand synthesis system (Invitrogen) to synthesize cDNA. One μl of each cDNA was used for real-time RT-PCR using QuantiFast SYBR Green PCR Kit […]. mRNA expression of gene of interest relative to β-actin was calculated based on the threshold cycle (Ct) as 2^−D(DCt) method.

Lats1/2 = Lats1/2 phosphorylation (Hippo signaling); assay type: cell-based, human; details: compound 1, 24 hours
Description: In FIG. 22A HCC1428 luminal BC cells that express E-Cadherin were treated with recombinant soluble E-Cadherin (rsE-Cad) for 24 hr and total cell extracts were analyzed for phosphorylation of the Lats1/2 tumor suppressors. Phospho.Lats1/2 and total Lats1/2 levels declined with rsE-Cad treatment consistent with TAZ translocation to the nucleus, where it acts as an oncogene with RUNX2. […] MCF7 cells expressing RUNX2 (Tet.OFF) were treated with compound 1 drug for 24 hours and total cell extracts were analyzed for phosphp.Lats1/2, total Lats1/2, and RUNX2 expression.

PDH = PDH enzymatic activity microtiter plate assay; assay type: cell-based, human; details: MDA-MB-468 and MCF7, 50 μM
Description: In FIG. 23A PDH enzymatic activity was determined in doxycycline-responsive MCF7-tet-off (left) and Hs578t-Control or RUNX2 KD cells (right) or non-targeting control siRNA (NTC=RUNX2+) versus RUNX2 KD (55.5 cells=RUNX2 KD) using an antibody-specific microtiter plate assay. Results are expressed as the change in Absorbance at 450 nm per minute per mg protein (ΔmOD450/min/mg) (*p<0.05). In FIG. 23B PDH activity was determined in MDA-MB-468 (left) and MCF7 (right) BC cell lines with or without compound 1 treatment (50 μM) for the indicated time period.

Complex I = Complex I activity; assay type: cell-based, human; details: MDA-468 and MCF7 cells, 50 μM, 1-3 days
Description: In FIG. 26A MDA-231, MDA-468, MCF7, and BT-474 breast cancer cells were treated with compound 1 (50 μM) for 1-3 days. Complex I activity increased in MDA-468 and MCF7 cells. In FIG. 26B T47D-Vector control or T47D-RUNX2-clone #10 overexpressing cells; MCF7-Vector Control or RUNX2-clone #2 overexpressing cells were treated with 50 μM compound 1 for 1 day.

RUNX2 [3] = target: T1, RUNX2 (Homo sapiens, UniProt Q13950); assay: D-ELISA DNA binding assay; design: endogenous in cells; details: read-out: IC50 in D-ELISA DNA binding assays (RUNX2 DNA binding)
Description: A microtiter plate-based D-ELISA was performed as described. Briefly, nuclear proteins were isolated from HBME-1 cells that express all three RUNX proteins and bound to double-stranded DNA oligonucleotides of human osteocalcin and MMP13 (forward primer: 5′-TTCTACCACAAACCACACTCGTTCTACCACAAACCACACTCGTTCTACCACAAACCACACTCG-Biotin-3′, SEQ ID NO: 4 and reverse primer: 5′-CGAGTGTGGTTTGTGGTAGAACGAGTGTGGTTTGTGGTAGAACGAGTGTGGTTTGTGGTAGAA-Biotin-3′, SEQ ID NO: 5). Vehicle (0.05% DMSO) or compound 1 at different concentrations were incubated with the proteins and DNA oligonucleotide mixture in Avidin-coated 96-well plates. DNA-bound RUNX proteins were captured with specific antibodies (Cell Signaling Technologies). Primary and secondary antibody dilution was 1:500 and 1:10,000, respectively.

RUNX2 [4] = target: T1, RUNX2; assay: Western blot of RUNX2, RUNX1, CBF-β; assay type: cell-based; design: endogenous in cells; host or cells: MDA-231, MDA-468
Description: Whole cell lysates extracted in RIPA buffer (Upstate) were separated on 4-12% gradient SDS-PAGE and transferred to nitrocellulose membrane. The blots were incubated with specific antibodies for each protein overnight at 4° C. After antibody washing, the blots were reacted with their respective secondary antibody and detected with enhanced chemiluminescence reagents (Millipore) according to the supplier's protocol. Antibodies for proteins were purchased as below. RUNX1, RUNX2, CBF-β, ubiquitin and caspase-3 (Cell Signaling Technologies), S451-p-RUNX2 (Bioss Gentaur, Belgium), RUNX3 and Glut-1 (Millipore, Calif.), β-actin and RUNX2 antibody for IHC (Sigma-Aldrich), and Ki-67 for IHC (Bethyl Laboratories, Inc, TX).

T1 sequence (Q13950 whole entry): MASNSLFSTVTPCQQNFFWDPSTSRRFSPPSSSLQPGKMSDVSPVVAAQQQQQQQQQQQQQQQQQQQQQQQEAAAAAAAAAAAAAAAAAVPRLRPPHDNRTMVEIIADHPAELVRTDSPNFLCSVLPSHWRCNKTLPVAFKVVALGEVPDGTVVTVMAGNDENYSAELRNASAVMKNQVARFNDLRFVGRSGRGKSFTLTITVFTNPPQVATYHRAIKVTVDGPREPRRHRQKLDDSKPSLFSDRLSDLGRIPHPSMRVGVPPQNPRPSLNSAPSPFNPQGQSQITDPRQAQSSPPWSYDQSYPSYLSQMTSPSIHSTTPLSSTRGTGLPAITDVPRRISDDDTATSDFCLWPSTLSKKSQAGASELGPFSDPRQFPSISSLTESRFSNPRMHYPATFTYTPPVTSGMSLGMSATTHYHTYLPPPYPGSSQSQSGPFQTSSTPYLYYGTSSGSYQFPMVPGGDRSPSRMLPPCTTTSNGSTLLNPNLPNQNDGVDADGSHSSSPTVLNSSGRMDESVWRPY

O=C(O)C1C2C=CC(C2)C1C(=O)Nc1ccc(Cl)c(Cl)c1 (centres unmarked) [compound 1, 3-(N-(3,4-dichlorophenyl)carbamoyl)-5-norbornene-2-carboxylic acid]
caspase-3/7 activity compared to vehicle controls (breast cancer cells [1]): no change
cell cycle distribution (breast cancer cells [2]): increased cell populations at the G1 phase with reduction at the S phase
invasiveness (MCF7-tet-off cells): almost abrogated
level of Sirt6 mRNA (RUNX2 responsive genes; MDA-231 cells, 6 hrs): increased
transcriptional levels of Glut-1 and LDHA (RUNX2 responsive genes; MDA-231 cells, 6 hrs): reduced
mRNA expression levels of MMP13, VEGF, and MMP9 (RUNX2 responsive genes; ectopic RUNX2-expressing MCF7 and T47D cells, 72 hrs): repressed
RUNX2-increased mRNA level of Glut-1 and LDHA (RUNX2 responsive genes; ectopic RUNX2-expressing T47D and MCF7 cells, 72 hrs): significantly inhibited
phosphorylation of the Lats1/2 tumor suppressors (Lats1/2): increase in phosphorylation
PDH activity (PDH): increases PDH activity
Complex I activity (Complex I): increased
IC50 (RUNX2 [3]): 10 nM
nuclear translocation of RUNX2 protein (RUNX2 [4]): did not block or attenuate
S451-p-RUNX2 levels (RUNX2 [4]; Empty controls, MDA-468 and MCF7): clearly reduced
RUNX2 protein stability (RUNX2 [4]; MDA-468 and MDA-231 cells, cycloheximide, 50 μM): increased RUNX2 stability

From patent publication US11634381B2, “RUNX2 transcription factor inhibitors and uses thereof” (University of Maryland, Baltimore, priority 2015, dated 2023)
